Test results: patent US8536139B2, “Compositions comprising lipoteichoic acid for use in treating pleural effusion or pneumothorax” (ISIS Innovation Limited, priority 2007, dated 2013)
Values joined by “and” are separate entries in the source; they are usually repeats but may differ in a detail not shown here. Identical values can stand only once.

Assays:
Format in all cases: in vivo, human
[1] = test system: adults with histocytologically proven malignant pleural effusion; test: Phase I/IIa trial of intrapleural LTA-T: dose escalation and toxicity
Text: The study was a phase I/IIa toxicity/non-randomised “proof of concept” efficacy trial. The protocol included administration of an intrapleural saline control followed by seven days pleural fluid production measurement prior to the administration of LTA-T to allow the assessment of any side-effects from LTA-T administration, and both acute pleural fluid production changes and the frequency of long-term pleurodesis efficacy after intrapleural LTA-T (see FIG. 1).
The subjects were adults (aged≧18) with histocytologically proven malignant pleural effusion requiring symptomatic treatment.
(§1) After informed consent, an indwelling pleural catheter (PleurX, Denver, Colo.) was placed in the pleural effusion and the pleural space fully drained. Markers of toxicity (clinical symptoms, blood parameters, performance status) were recorded daily on the first 14 days of the study and at intervals thereafter (FIG. 1).
After initial complete fluid drainage, 30 mls intra-pleural saline (saline control) was administered (day 1). The daily pleural fluid drainage was then recorded for seven days to quantify the rate of production of pleural fluid. On day seven, subjects received a single intra-pleural injection of LTA-T, according to the dosing schedule (table 1). The starting dose was 250 mcg. Patients remained in hospital for one night following LTA-T administration in a respiratory unit equipped for the care of acute respiratory failure to permit immediate adverse event monitoring.
(§2) Patient symptoms, performance status, radiographic pleural fluid recurrence (chest radiograph), adverse events and the clinical need for further pleural fluid drainage was assessed on days 22, 43, 64, 85. Where further fluid drainage was required, the time from the administration of LTA-T to first drainage was recorded. Those with recurrent pleural fluid were offered sterile talc pleurodesis (as standard care). All patients were followed up to death.

[2] = test system: adults with histocytologically proven malignant pleural effusion; test: Alveolar to arterial gradient in the partial pressure of oxygen (arterial blood gases breathing air)
Text: Arterial blood gases breathing air were taken on days 1 and 3 of the first week (pre and post control saline), and on days 7 and 9 (pre and post LTA-T) to identify any impaired gas exchange (which is a problem with talc pleurodesis). The efficiency of lung oxygen exchange was quantified from the change in the alveolar to arterial gradient for the partial pressure of oxygen calculated from these blood gas samples, using standard methods.
(§3) Changes in continuous variables were compared to baseline using a paired t-test (SPSS version 12.0).

[3] = test system: malignant pleural effusion; test: Long-term pleural fluid control (pleurodesis success, need for late therapeutic drainage)
Experimental: Over the next 7 days (days 7-14), daily pleural fluid volume drainage and pleural fluid cytology for malignant cells was performed unless pleural fluid flow ceased. On day 14, the intra-pleural catheter was flushed and closed (but left in situ) and not used again for the duration of the study unless recurrent pleural fluid caused breathlessness requiring treatment by fluid drainage.
as §2
Long-term pleural fluid control was assessed by noting which patients required late therapeutic (>500 mls) pleural fluid drainage from their indwelling catheter in association with symptoms (excluding the subject not capable of achieving pleurodesis due to trapped lung). […] Between day 14 (when the indwelling catheter was first locked closed) and 1 month, 3 further patients received one therapeutic fluid drainage (pleurodesis success from day 14 9/12 (75%)). In those patients receiving a dose >750 mcg of intrapleural LTA-T, 6/7 required no therapeutic drainage at 1 month (86% pleurodesis success rate).

[4] = test system: adults with histocytologically proven malignant pleural effusion; test: Peripheral blood white cell count change 24 hours after intrapleural administration; settings: 7 subjects receiving >750 mcg; p=0.016, paired t-test
Experimental: FIG. 3 illustrates the change in peripheral white cell count 24 hours after administration of intrapleural saline control or LTA-T, in all patients (FIG. 3a) and patients receiving 750 mcg LTA-T or more (FIG. 3b). Individual results are shown and mean and SD data for each group.
as §1, §3

lipoteichoic acid T [LTA-T]
Toxicity at the therapeutic dose ([1]; 750-1500 mcg intrapleural): mild with no consistent side effect profile | Pain ([1]; dose of 750 mcg to 1000 mcg): almost no pain | Side effects ([1]; individual patients, single intrapleural dose 250 mcg): mild fever and Nil and Mild chest pain 2 hours post administration | Side effects ([1]; individual patients, single intrapleural dose 375 mcg): Nil (2×) and Mild headache and light headed 4 hours | Side effects ([1]; individual patients, single intrapleural dose 750 mcg): Nil and Mild back pain on inspiration after LTA-T, and Nausea, vomiting and pyrexia for 3 days | Side effects ([1]; individual patients, single intrapleural dose 1500 mcg): Nil | Raised inflammatory markers (CRP) ([1]; patient 10, 750 mcg, post LTA-T administration): inflammatory markers (CRP > 285). | Side effects ([1]; patient 14, single intrapleural dose 3000 mcg): systemic inflammatory reaction | Blood parameter, performance status or respiratory status toxicities ([1]; whole trial): No blood parameter, performance status or respiratory status toxicities were seen | Alveolar to arterial gradient for the partial pressure of oxygen, post LTA-T, mean (SD) ([2]; day 9, mean baseline (SD) 4.24 (2.92) kPa): 4.88 (1.80) kPa | Blood oxygen levels ([2]; dose of 750 mcg to 1000 mcg): no evidence of depressed blood oxygen levels | Change in the alveolar to arterial gradient versus saline control ([2]; following LTA-T compared with saline control): similar | Pleurodesis success from day 14 ([3]; 9/12, day 14 to 1 month, where pleurodesis technically achievable): 75% | Patients not requiring any further therapeutic pleural drainage beyond 1 month from trial entry ([3]; 12/13 patients, trapped lung subject excluded): 92% | Pleurodesis outcome ([3]; dose of 750 mcg to 1000 mcg): effective pleurodesis | Pleurodesis success rate (no therapeutic drainage at 1 month) ([3]; patients receiving >750 mcg intrapleural, 6/7): 86% | Difference in WCC change, LTA-T vs saline [4]: 4.70 (3.77)
